In patent US11752138B2 (VANDERBILT UNIVERSITY, priority 2020, dated 2023):

biological target: Human LDHA (Homo sapiens (Human), UniProt P00338); test: human LDHA primary biochemical assay (Example 1); conditions: biochemical LDHA inhibitory activity, assay of Example 1
Excerpt: This example describes a human LDHA primary biochemical assay employed in the characterization of a compound of Formula I in an embodiment of the dislcosure.
Test compounds were placed in a Greiner Bio-One (Monroe, N.C.) 1536-well black solid bottom assay plate. 200 millimolar (mM) Tris HCl, pH 7.4, 100 micromolar (μM) EDTA and 0.01% TWEEN-20™, final concentration, was used as the assay buffer. The LDHA reagent was 2 nanomolar (nM) Human LDHA (Meridian Life Science, Inc., Memphis, Tenn.), final concentration, in assay buffer. The substrate reagent was 0.06 mM NADH and 0.2 mM sodium pyruvate, final concentration, in assay buffer. The resazurin/diaphorase coupling reagent was 0.037 mM resazurin and 0.133 milligrams per milliliter (mg/mL) diaphorase, final concentration, in assay buffer. The inhibition of LDHA activity was measured by fluorescence emission. […]

Question: For `Cc1cnc(-c2cccc(-c3nn(-c4nc(C(=O)O)cs4)c(CC4CC4)c3Cc3ccc(S(N)(=O)=O)c(F)c3)c2)nc1` [Compound 217, 2-[5-(cyclopropylmethyl)-4-[(3-fluoro-4-sulfamoylphenyl)methyl]-3-[3-(5-methylpyrimidin-2-yl)phenyl]pyrazol-1-yl]-1,3-thiazole-4-carboxylicacid], which IC50 is on record?
Answer: < 100 nM

Question: For `Cc1ccc(C#Cc2cccc(-c3nn(-c4nc(C(=O)O)cs4)c(CC4CC4)c3Cc3ccc(S(N)(=O)=O)c(F)c3)n2)s1` [Compound 231, 2-(5-(cyclopropylmethyl)-4-(3-fluoro-4-sulfamoylbenzyl)-3-(6-((5-methylthiophen-2-yl)ethynyl)pyridin-2-yl)-1H-pyrazol-1-yl)thiazole-4-carboxylic acid], which IC50 is on record?
Answer: < 100 nM

Question: For `Cc1ncc(C#Cc2cccc(-c3nn(-c4nc(C(=O)O)cs4)c(CCC4CC4)c3Cc3ccc(S(N)(=O)=O)c(F)c3)c2)s1` [Compound 235, 2-(5-(2-cyclopropylethyl)-4-(3-fluoro-4-sulfamoylbenzyl)-3-(3-((2-methylthiazol-5-yl)ethynyl)phenyl)-1H-pyrazol-1-yl)thiazole-4-carboxylic acid], which IC50 is on record?
Answer: < 100 nM

Question: Which IC50 does the source give for `COc1ccc(-c2cc(-c3nn(-c4nc(C(=O)O)cs4)c(CC4CC4)c3Cc3ccc(S(N)(=O)=O)c(F)c3)ccc2F)cc1Cl` [Compound 191, 2-(3-(3′-chloro-6-fluoro-4′-methoxy-[1,1′-biphenyl]-3-yl)-5-(cyclopropylmethyl)-4-(3-fluoro-4-sulfamoylbenzyl)-1H-pyrazol-1-yl)thiazole-4-carboxylic acid] here?
Answer: < 100 nM

Question: For `Cc1cc(C#Cc2cccc(-c3nn(-c4nc(C(=O)O)cs4)c(CC4CC4)c3Cc3ccc(S(N)(=O)=O)c(F)c3)c2)cs1` [Compound 240, 2-(5-(cyclopropylmethyl)-4-(3-fluoro-4-sulfamoylbenzyl)-3-(3-((5-methylthiophen-3-yl)ethynyl)phenyl)-1H-pyrazol-1-yl)thiazole-4-carboxylic acid], which IC50 is on record?
Answer: < 100 nM

Question: With `Cc1ccc(C#Cc2cccc(-c3nn(-c4nc(C(=O)O)cs4)c(C4CC4C4CC4)c3Cc3ccc(S(N)(=O)=O)c(F)c3)c2)s1` (stereo not drawn) [Compound 134, 2-(5-([1,1′-bi(cyclopropan)]-2-yl)-4-(3-fluoro-4-sulfamoylbenzyl)-3-(3-((5-methylthiophen-2-yl)ethynyl)phenyl)-1H-pyrazol-1-yl)thiazole-4-carboxylic acid] as the molecule, how does the IC50 read?
Answer: 100 to 1000 nM

Question: With `N#Cc1cccc(-c2cc(-c3nn(-c4nc(C(=O)O)cs4)c(CC4CC4)c3Cc3ccc(S(N)(=O)=O)c(F)c3)ccc2F)c1` [Compound 200, 2-(3-(3′-cyano-6-fluoro-[1,1′-biphenyl]-3-yl)-5-(cyclopropylmethyl)-4-(3-fluoro-4-sulfamoylbenzyl)-1H-pyrazol-1-yl)thiazole-4-carboxylic acid] as the molecule, how does the IC50 read?
Answer: < 100 nM

Question: With `Cc1ccc(-c2cccc(-c3nn(-c4nc(C(=O)O)cs4)c(CC4CC4)c3Cc3ccc(S(N)(=O)=O)c(F)c3)c2)cc1` [Compound 198, 2-(5-(cyclopropylmethyl)-4-(3-fluoro-4-sulfamoylbenzyl)-3-(4′-methyl-[1,1′-biphenyl]-3-yl)-1H-pyrazol-1-yl)thiazole-4-carboxylic acid] as the molecule, how does the IC50 read?
Answer: < 100 nM

Question: For `NS(=O)(=O)c1ccc(Cc2c(-c3cccc(-c4ccc(C(F)(F)F)cc4)c3)nn(-c3nc(C(=O)O)cs3)c2CC2CC2)cc1F` [Compound 219, 2-(5-(cyclopropylmethyl)-4-(3-fluoro-4-sulfamoylbenzyl)-3-(4′-(trifluoromethyl)-[1,1′-biphenyl]-3-yl)-1H-pyrazol-1-yl)thiazole-4-carboxylic acid], which IC50 is on record?
Answer: < 100 nM

Question: How did the IC50 turn out when `CC(C)(C)NC(=O)c1cc(-c2nn(-c3nc(C(=O)O)cs3)c(CC3CC3)c2Cc2ccc([S+](N)(=O)[O-])c(F)c2)ccc1F` [Compound 147, 2-(3-(3-(tert-butylcarbamoyl)-4-fluorophenyl)-5-(cyclopropylmethyl)-4-(3-fluoro-4-sulfamoylbenzyl)-1H-pyrazol-1-yl) thiazole-4-carboxylic acid] was run?
Answer: < 100 nM

Question: Which IC50 does the source give for `NS(=O)(=O)c1ccc(Cc2c(-c3cccc(C(=O)N4CCCC4)c3)nn(-c3nc(C(=O)O)cs3)c2CC2CC2)cc1` [Compound 145, 2-(5-(cyclopropylmethyl)-3-(3-(pyrrolidine-1-carbonyl)phenyl)-4-(4-sulfamoylbenzyl)-1H-pyrazol-1-yl)thiazole-4-carboxylic acid] here?
Answer: < 100 nM

Question: With `Cc1ccc(-c2cccc(-c3nn(-c4nc(C(=O)O)cs4)c(CC4CC4)c3Cc3ccc(S(N)(=O)=O)c(F)c3)c2)nc1` [Compound 203, 2-(5-(cyclopropylmethyl)-4-(3-fluoro-4-sulfamoylbenzyl)-3-(3-(5-methylpyridin-2-yl)phenyl)-1H-pyrazol-1-yl)thiazole-4-carboxylic acid] as the molecule, how does the IC50 read?
Answer: < 100 nM

Question: For `Cc1cc(-c2cccc(-c3nn(-c4nc(C(=O)O)cs4)c(CC4CC4)c3Cc3ccc(S(N)(=O)=O)c(F)c3)c2)ccc1O` [Compound 228, 2-(5-(cyclopropylmethyl)-4-(3-fluoro-4-sulfamoylbenzyl)-3-(4′-hydroxy-3′-methyl-[1,1′-biphenyl]-3-yl)-1H-pyrazol-1-yl)thiazole-4-carboxylic acid], which IC50 is on record?
Answer: < 100 nM

Question: `N#Cc1ccc(-c2cc(-c3nn(-c4nc(C(=O)O)cs4)c(CC4CC4)c3Cc3ccc(S(N)(=O)=O)c(F)c3)ccc2F)cc1` [Compound 201, 2-(3-(4′-cyano-6-fluoro-[1,1′-biphenyl]-3-yl)-5-(cyclopropylmethyl)-4-(3-fluoro-4-sulfamoylbenzyl)-1H-pyrazol-1-yl)thiazole-4-carboxylic acid] was tested. Which IC50 did it give?
Answer: < 100 nM

Question: How did the IC50 turn out when `Cc1nc(C#Cc2cccc(-c3nn(-c4nc(C(=O)O)cs4)c(CC4CC4)c3Cc3ccc(S(N)(=O)=O)c(F)c3)c2)cs1` [Compound 236, 2-(5-(cyclopropylmethyl)-4-(3-fluoro-4-sulfamoylbenzyl)-3-(3-((2-methylthiazol-4-yl)ethynyl)phenyl)-1H-pyrazol-1-yl)thiazole-4-carboxylic acid] was run?
Answer: < 100 nM

Question: `CC(C)c1ccc(-c2cc(-c3nn(-c4nc(C(=O)O)cs4)c(CC4CC4)c3Cc3ccc(S(N)(=O)=O)c(F)c3)ccc2F)cc1` [Compound 142, 2-(5-(cyclopropylmethyl)-3-(6-fluoro-4′-isopropyl-[1,1′-biphenyl]-3-yl)-4-(3-fluoro-4-sulfamoylbenzyl)-1H-pyrazol-1-yl)thiazole-4-carboxylic acid] was tested. Which IC50 did it give?
Answer: 100 to 1000 nM

Question: With `NS(=O)(=O)c1ccc(Cc2c(-c3ccc(F)c(-c4ccc5c(c4)CCCC5)c3)nn(-c3nc(C(=O)O)cs3)c2CC2CC2)cc1F` [Compound 143, 2-(5-(cyclopropylmethyl)-3-(4-fluoro-3-(5,6,7,8-tetrahydronaphthalen-2-yl)phenyl)-4-(3-fluoro-4-sulfamoylbenzyl)-1H-pyrazol-1-yl)thiazole-4-carboxylic acid] as the molecule, how does the IC50 read?
Answer: < 100 nM

Question: `Cc1nc(C#Cc2cccc(-c3nn(-c4nc(C(=O)O)cs4)c(CCC4CC4)c3Cc3ccc(S(N)(=O)=O)c(F)c3)c2)cs1` [Compound 243, 2-(5-(2-cyclopropylethyl)-4-(3-fluoro-4-sulfamoylbenzyl)-3-(3-((2-methylthiazol-4-yl)ethynyl)phenyl)-1H-pyrazol-1-yl)thiazole-4-carboxylic acid] was tested. Which IC50 did it give?
Answer: < 100 nM

Question: How did the IC50 turn out when `Cc1cnc(C#Cc2cccc(-c3nn(-c4nc(C(=O)O)cs4)c(CCC4CC4)c3Cc3ccc(S(N)(=O)=O)c(F)c3)c2)s1` [Compound 234, 2-(5-(2-cyclopropylethyl)-4-(3-fluoro-4-sulfamoylbenzyl)-3-(3-((5-methylthiazol-2-yl)ethynyl)phenyl)-1H-pyrazol-1-yl)thiazole-4-carboxylic acid] was run?
Answer: < 100 nM

Question: Which IC50 does the source give for `NS(=O)(=O)c1ccc(Cc2c(-c3ccc(F)c(-c4ccc(Cl)cc4)c3)nn(-c3nc(C(=O)O)cs3)c2CC2CC2)cc1F` [Compound 139, 2-(3-(4′-chloro-6-fluoro-[1,1′-biphenyl]-3-yl)-5-(cyclopropylmethyl)-4-(3-fluoro-4-sulfamoylbenzyl)-1H-pyrazol-1-yl)thiazole-4-carboxylic acid] here?
Answer: < 100 nM

Question: Which IC50 does the source give for `NS(=O)(=O)c1ccc(Cc2c(-c3cccc(-c4ccc5c(c4)CCC5)c3)nn(-c3nc(C(=O)O)cs3)c2CC2CC2)cc1F` [Compound 220, 2-(5-(cyclopropylmethyl)-3-(3-(2,3-dihydro-1H-inden-5-yl)phenyl)-4-(3-fluoro-4-sulfamoylbenzyl)-1H-pyrazol-1-yl)thiazole-4-carboxylic acid] here?
Answer: < 100 nM

Question: How did the IC50 turn out when `NS(=O)(=O)c1ccc(Cc2c(-c3ccc(F)c(-c4ccc(Cl)c(F)c4)c3)nn(-c3nc(C(=O)O)cs3)c2CC2CC2)cc1F` [Compound 144, 2-(3-(4′-chloro-3′,6-difluoro-[1,1′-biphenyl]-3-yl)-5-(cyclopropylmethyl)-4-(3-fluoro-4-sulfamoylbenzyl)-1H-pyrazol-1-yl)thiazole-4-carboxylic acid] was run?
Answer: < 100 nM

Question: How did the IC50 turn out when `NS(=O)(=O)c1ccc(Cc2c(-c3ccc(F)c(-c4nc5ccccc5[nH]4)c3)nn(-c3nc(C(=O)O)cs3)c2CC2CC2)cc1F` [Compound 160, 2-(3-(3-(1H-benzo[d]imidazol-2-yl)-4-fluorophenyl)-5-(cyclopropylmethyl)-4-(3-fluoro-4-sulfamoylbenzyl)-1H-pyrazol-1-yl)thiazole-4-carboxylic acid] was run?
Answer: < 100 nM

Question: `CC(C)(C)NC(=O)c1cccc(-c2nn(-c3nc(C(=O)O)cs3)c(CC3CC3)c2Cc2ccc([S+](N)(=O)[O-])cc2)c1` [Compound 188, 2-(3-(3-(tert-butylcarbamoyl)phenyl)-5-(cyclopropylmethyl)-4-(4-sulfamoylbenzyl)-1H-pyrazol-1-yl)thiazole-4-carboxylic acid] was tested. Which IC50 did it give?
Answer: < 100 nM
